According to US20260027125A1, “AN ANTIBACTERIAL PARENTERAL FORMULATION AND METHODS THEREOF” (BUGWORKS RESEARCH INDIA PVT. LTD., priority 2022, published 2026):
Structures can show the parent of a compound that is named as a salt.

Key:
[1] = test system: Helicobacter pylori
[2] = test system: Neisseria gonorrhoea
[3] = test system: Yersinia pestis; assay: microbe, parasite or virus in culture; format: cell-based
[4] = test system: Klebsiella oxytoca, aerogenes; assay: microbe, parasite or virus in culture; format: cell-based
[5] = test system: Burkholderia cepacia species; assay: microbe, parasite or virus in culture; format: cell-based
[6] = test system: Klebsiella pneumoniae; assay: microbe, parasite or virus in culture; format: cell-based
[7] = test system: Moraxella catarrhalis; assay: microbe, parasite or virus in culture; format: cell-based
[8] = test system: Streptococcus pneumoniae; assay: microbe, parasite or virus in culture; format: cell-based
[9] = test system: Prevotella sp. (anaerobe); assay: microbe, parasite or virus in culture; format: cell-based
[10] = test system: Burkholderia mallei; assay: microbe, parasite or virus in culture; format: cell-based
[11] = test system: Mycoplasma species (atypical); assay: microbe, parasite or virus in culture; format: cell-based
[12] = test system: Coagulase-negatives Staphylococcus; assay: microbe, parasite or virus in culture; format: cell-based
[13] = test system: Stenotrophomonas maltophilia; assay: microbe, parasite or virus in culture; format: cell-based
[14] = test system: Helicobacter pylori; assay: microbe, parasite or virus in culture
[15] = pH solution stability study; format: physicochemical
Experimental: The weighed quantity of compound of Formula (I) formate salt was added to each buffers system and dissolved. Volume make up was performed with WFI. The 5 mL of sample was filled in 5 mL USP Type I Vials. Vials were stopped and sealed. These vials were kept at 25° C. for stability study. The blank buffers/placebo samples were also placed along with active samples.

[16] = test system: Escherichia coli; assay: microbe, parasite or virus in culture; format: cell-based
[17] = test system: Morganella morgannii; assay: microbe, parasite or virus in culture; format: cell-based
[18] = test system: Campylobacter sp.; assay: microbe, parasite or virus in culture; format: cell-based
[19] = test system: Bacillus anthracis; assay: microbe, parasite or virus in culture; format: cell-based
[20] = test system: Francisella tularensis; assay: microbe, parasite or virus in culture; format: cell-based
[21] = Burkholderia cepacia species clinical isolates, N 75

Compound: Cn1c(=O)ccc2ccc(F)c(CCNC[C@H]3CN(c4cnc5c(n4)NC(=O)CO5)C(=O)O3)c21 [compound of Formula (I) formate salt, (S)-6-(5-(((2-(7-fluoro-1-methyl-2-oxo-1,2-dihydroquinolin-8-yl)ethyl)amino)methyl)-2-oxooxazolidin-3-yl)-2H-pyrazino[2,3-b][1,4]oxazin-3(4H)-one formate]
- MIC Range, high end [1]: 0.5 µg/mL
- MIC Range, low end [1]: ≤0.015 µg/mL
- MIC Range, high end [2]: ≤0.015 µg/mL
- MIC Range, low end [2]: ≤0.015 µg/mL
- MIC50 [3]: ≤ 0.015 µg/mL
- MIC90 [3]: ≤ 0.015 µg/mL
- MIC Range, high end ([3]; N 35 strains): ≤0.015 µg/mL
- MIC Range, low end ([3]; N 35 strains): ≤0.015 µg/mL
- MIC Range, high end [4]: 4 µg/mL
- MIC Range, low end [4]: 0.06 µg/mL
- MIC50 ([4]; Klebsiella oxytoca): 0.25 µg/mL
- MIC90 ([4]; Klebsiella oxytoca): 0.5 µg/mL
- MIC50 ([5]; Burkholderia cepacia): 0.06 µg/mL
- MIC90 ([5]; Burkholderia cepacia): 0.5 µg/mL
- MIC Range, high end [5, 21]: 2 µg/mL
- MIC Range, low end [5, 21]: 0.03 µg/mL
- MIC Range, high end [6]: 32 µg/mL
- MIC Range, low end [6]: 0.03 µg/mL
- MIC50 ([6]; Klebsiella pneumoniae): 0.5 µg/mL
- MIC90 ([6]; Klebsiella pneumoniae): 2 µg/mL
- MIC Range, high end [7]: ≤0.015 µg/mL
- MIC Range, low end [7]: ≤0.015 µg/mL
- MIC50 ([7]; Moraxella catarrhalis): ≤ 0.015 µg/mL
- MIC90 ([7]; Moraxella catarrhalis): ≤ 0.015 µg/mL
- MIC Range, high end [8]: 0.06 µg/mL
- MIC Range, low end [8]: 0.03 µg/mL
- MIC50 ([8]; Streptococcus pneumoniae): 0.03 µg/mL
- MIC90 ([8]; Streptococcus pneumoniae): 0.03 µg/mL
- MIC Range, high end [9]: 1 µg/mL
- MIC Range, low end [9]: ≤0.015 µg/mL
- MIC50 ([9]; Prevotella): ≤ 0.015 µg/mL
- MIC90 ([9]; Prevotella): ≤ 0.015 µg/mL
- MIC50 [10]: 0.25 µg/mL
- MIC90 [10]: 1 µg/mL
- MIC Range, high end ([10]; N 36 strains): 4 µg/mL
- MIC Range, low end ([10]; N 36 strains): ≤0.015 µg/mL
- MIC Range, high end [11]: ≤0.015 µg/mL
- MIC Range, low end [11]: ≤0.015 µg/mL
- MIC50 ([11]; Mycoplasma leachii): ≤ 0.015 µg/mL
- MIC90 ([11]; Mycoplasma leachii): ≤ 0.015 µg/mL
- MIC Range, high end [12]: 0.03 µg/mL
- MIC Range, low end [12]: <0.015 µg/mL
- MIC50 ([12]; Staphylococcus): < 0.015 µg/mL
- MIC90 ([12]; Staphylococcus): < 0.015 µg/mL
- MIC Range, high end [13]: 2 µg/mL
- MIC Range, low end [13]: 0.03 µg/mL
- MIC50 ([13]; Stenotrophomonas maltophilia): 0.06 µg/mL
- MIC90 ([13]; Stenotrophomonas maltophilia): 0.25 µg/mL
- MIC50 [14]: ≤ 0.015 µg/mL
- MIC90 [14]: ≤ 0.015 µg/mL
- stability ([15]; acid pH (<5)): very stable
- stability ([15]; liquid state (Solution/Suspension)): highly unstable
- stability ([15]; neutral to alkaline pH range (pH 5.0 to 10.0)): unstable
- solution stability upto ([15]; pH 3.0-pH 5.0): ≤ 24 h
- MIC Range, high end [16]: 4 µg/mL
- MIC Range, low end [16]: ≤0.015 µg/mL
- MIC50 ([16]; Escherichia coli): 0.12 µg/mL
- MIC90 ([16]; Escherichia coli): 0.5 µg/mL
- MIC Range, high end [17]: 8 µg/mL
- MIC Range, low end [17]: ≤0.015 µg/mL
- MIC50 ([17]; Morganella): 0.12 µg/mL
- MIC90 ([17]; Morganella): 0.5 µg/mL
- MIC Range, high end [18]: 0.03 µg/mL
- MIC Range, low end [18]: ≤0.015 µg/mL
- MIC50 ([18]; Campylobacter): ≤ 0.015 µg/mL
- MIC90 ([18]; Campylobacter): ≤ 0.015 µg/mL
- MIC50 [19]: ≤ 0.015 µg/mL
- MIC90 [19]: ≤ 0.015 µg/mL
- MIC Range, high end ([19]; N 42 strains): ≤0.015 µg/mL
- MIC Range, low end ([19]; N 42 strains): ≤0.015 µg/mL
- MIC50 [20]: ≤ 0.015 µg/mL
- MIC90 [20]: ≤ 0.015 µg/mL
- MIC Range, high end ([20]; N 36 strains): ≤0.015 µg/mL
- MIC Range, low end ([20]; N 36 strains): ≤0.015 µg/mL
